According to ChEMBL document CHEMBL5465560, “Selectivity Literature for EUbOPEN Chemogenomic Library” (2024):

Columns and labels:
[1] = target: T1, Serine/threonine-protein kinase ICK (Homo sapiens) (UniProt Q9UPZ9); test: Selectivity interaction (Ambit KINOMEscan and KiNATiv profiling in Jurkat cells) EUB0000090b ICK; format: cell-based; details: at 1 µM
T1 sequence (whole entry): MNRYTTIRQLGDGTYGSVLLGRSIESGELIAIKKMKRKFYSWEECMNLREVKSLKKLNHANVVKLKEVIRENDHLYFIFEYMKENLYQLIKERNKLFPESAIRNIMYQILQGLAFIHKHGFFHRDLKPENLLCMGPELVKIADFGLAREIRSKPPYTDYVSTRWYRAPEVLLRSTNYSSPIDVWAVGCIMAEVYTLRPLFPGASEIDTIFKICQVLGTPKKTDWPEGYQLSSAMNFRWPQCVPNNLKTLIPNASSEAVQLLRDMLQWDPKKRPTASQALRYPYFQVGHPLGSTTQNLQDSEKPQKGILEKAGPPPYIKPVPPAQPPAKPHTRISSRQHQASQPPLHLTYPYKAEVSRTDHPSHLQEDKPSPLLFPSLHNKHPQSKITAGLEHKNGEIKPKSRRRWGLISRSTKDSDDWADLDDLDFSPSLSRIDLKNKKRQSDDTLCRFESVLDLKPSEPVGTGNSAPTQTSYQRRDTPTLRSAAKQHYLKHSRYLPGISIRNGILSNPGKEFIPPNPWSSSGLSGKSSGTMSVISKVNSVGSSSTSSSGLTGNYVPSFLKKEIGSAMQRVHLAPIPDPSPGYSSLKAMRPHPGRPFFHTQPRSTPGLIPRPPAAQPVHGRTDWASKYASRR

[2] = target: T2, Tyrosine-protein kinase Mer (Homo sapiens) (UniProt Q12866); test: Selectivity interaction (KinomeScan (DiscoverX)) EUB0000655a MERTK; details: at 10 µM
T2 sequence (whole entry): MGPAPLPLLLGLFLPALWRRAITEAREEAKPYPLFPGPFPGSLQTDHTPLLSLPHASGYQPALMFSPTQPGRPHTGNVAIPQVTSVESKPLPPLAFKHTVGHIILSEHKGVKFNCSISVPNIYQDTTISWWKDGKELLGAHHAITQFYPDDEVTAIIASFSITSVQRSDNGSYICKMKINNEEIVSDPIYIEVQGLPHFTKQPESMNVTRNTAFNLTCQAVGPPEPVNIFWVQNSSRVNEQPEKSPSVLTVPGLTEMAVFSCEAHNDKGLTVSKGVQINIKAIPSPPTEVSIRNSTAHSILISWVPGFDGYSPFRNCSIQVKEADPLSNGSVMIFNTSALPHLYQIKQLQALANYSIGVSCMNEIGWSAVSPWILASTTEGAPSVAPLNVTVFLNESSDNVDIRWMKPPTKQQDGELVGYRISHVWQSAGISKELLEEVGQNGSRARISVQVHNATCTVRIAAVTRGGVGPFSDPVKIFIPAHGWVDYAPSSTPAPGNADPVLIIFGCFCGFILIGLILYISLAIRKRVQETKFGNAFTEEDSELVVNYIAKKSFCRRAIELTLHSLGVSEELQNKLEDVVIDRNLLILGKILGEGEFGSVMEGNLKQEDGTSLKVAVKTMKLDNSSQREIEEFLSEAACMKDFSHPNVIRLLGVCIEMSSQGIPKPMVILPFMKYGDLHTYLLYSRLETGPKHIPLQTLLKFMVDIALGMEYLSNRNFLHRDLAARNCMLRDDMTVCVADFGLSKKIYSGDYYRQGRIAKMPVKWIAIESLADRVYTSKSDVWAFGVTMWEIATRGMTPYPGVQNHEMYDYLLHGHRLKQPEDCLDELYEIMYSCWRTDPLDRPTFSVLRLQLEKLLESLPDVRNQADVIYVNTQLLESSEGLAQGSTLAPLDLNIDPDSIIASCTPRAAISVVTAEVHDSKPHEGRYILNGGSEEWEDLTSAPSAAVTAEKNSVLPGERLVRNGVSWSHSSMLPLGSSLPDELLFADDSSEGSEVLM

[3] = target: T3, Cyclin-dependent kinase 5 (Homo sapiens, UniProt Q00535); test: Selectivity interaction (KinomeScan (DiscoverX)) EUB0000607a CDK5; details: at 10 µM
Target sequence in this assay (Q00535 whole entry, looked up): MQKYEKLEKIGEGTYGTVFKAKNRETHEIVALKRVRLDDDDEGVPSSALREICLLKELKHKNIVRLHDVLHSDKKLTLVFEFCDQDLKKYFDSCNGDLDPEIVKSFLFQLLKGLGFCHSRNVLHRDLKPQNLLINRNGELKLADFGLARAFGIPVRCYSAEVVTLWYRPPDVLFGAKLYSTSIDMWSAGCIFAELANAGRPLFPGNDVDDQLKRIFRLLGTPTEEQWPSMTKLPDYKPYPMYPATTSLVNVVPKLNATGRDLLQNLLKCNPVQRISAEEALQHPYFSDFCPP

[4] = target: T3, Cyclin-dependent kinase 5; test: Selectivity interaction (Kinase panel (enzymatic assay)) EUB0000595a CDK5
Target sequence in this assay (Q00535 whole entry): as the sequence (Q00535 whole entry, looked up) above

[5] = target: T4, G protein-coupled receptor kinase 3 (Homo sapiens) (UniProt P35626); test: Selectivity interaction (KinomeScan (DiscoverX)) EUB0000229b ADRBK2; details: at 10 µM
T4 sequence (whole entry): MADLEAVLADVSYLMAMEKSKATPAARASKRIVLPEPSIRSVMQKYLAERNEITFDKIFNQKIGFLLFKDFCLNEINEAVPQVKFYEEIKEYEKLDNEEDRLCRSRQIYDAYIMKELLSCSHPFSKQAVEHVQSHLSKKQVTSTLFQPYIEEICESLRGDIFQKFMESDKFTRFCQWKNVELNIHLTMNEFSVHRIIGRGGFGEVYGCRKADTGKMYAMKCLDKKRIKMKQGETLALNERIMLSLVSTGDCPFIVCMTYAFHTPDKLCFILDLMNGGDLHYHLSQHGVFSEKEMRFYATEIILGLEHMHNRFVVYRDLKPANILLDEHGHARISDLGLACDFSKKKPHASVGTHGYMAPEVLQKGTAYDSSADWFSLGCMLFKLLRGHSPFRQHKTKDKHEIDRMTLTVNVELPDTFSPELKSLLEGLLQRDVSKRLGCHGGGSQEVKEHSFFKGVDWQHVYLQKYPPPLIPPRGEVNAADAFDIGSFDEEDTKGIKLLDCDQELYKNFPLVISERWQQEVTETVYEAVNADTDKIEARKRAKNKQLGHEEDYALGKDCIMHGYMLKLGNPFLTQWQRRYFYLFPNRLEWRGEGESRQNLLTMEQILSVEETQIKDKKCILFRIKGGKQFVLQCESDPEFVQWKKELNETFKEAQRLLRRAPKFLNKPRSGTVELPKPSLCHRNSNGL

[6] = target: Homeodomain-interacting protein kinase 3 (Homo sapiens, UniProt Q9H422); test: Selectivity interaction (KinomeScan (DiscoverX)) EUB0000666a HIPK3; details: at 10 µM
Sequence of Homeodomain-interacting protein kinase 3 (Q9H422 whole entry, looked up): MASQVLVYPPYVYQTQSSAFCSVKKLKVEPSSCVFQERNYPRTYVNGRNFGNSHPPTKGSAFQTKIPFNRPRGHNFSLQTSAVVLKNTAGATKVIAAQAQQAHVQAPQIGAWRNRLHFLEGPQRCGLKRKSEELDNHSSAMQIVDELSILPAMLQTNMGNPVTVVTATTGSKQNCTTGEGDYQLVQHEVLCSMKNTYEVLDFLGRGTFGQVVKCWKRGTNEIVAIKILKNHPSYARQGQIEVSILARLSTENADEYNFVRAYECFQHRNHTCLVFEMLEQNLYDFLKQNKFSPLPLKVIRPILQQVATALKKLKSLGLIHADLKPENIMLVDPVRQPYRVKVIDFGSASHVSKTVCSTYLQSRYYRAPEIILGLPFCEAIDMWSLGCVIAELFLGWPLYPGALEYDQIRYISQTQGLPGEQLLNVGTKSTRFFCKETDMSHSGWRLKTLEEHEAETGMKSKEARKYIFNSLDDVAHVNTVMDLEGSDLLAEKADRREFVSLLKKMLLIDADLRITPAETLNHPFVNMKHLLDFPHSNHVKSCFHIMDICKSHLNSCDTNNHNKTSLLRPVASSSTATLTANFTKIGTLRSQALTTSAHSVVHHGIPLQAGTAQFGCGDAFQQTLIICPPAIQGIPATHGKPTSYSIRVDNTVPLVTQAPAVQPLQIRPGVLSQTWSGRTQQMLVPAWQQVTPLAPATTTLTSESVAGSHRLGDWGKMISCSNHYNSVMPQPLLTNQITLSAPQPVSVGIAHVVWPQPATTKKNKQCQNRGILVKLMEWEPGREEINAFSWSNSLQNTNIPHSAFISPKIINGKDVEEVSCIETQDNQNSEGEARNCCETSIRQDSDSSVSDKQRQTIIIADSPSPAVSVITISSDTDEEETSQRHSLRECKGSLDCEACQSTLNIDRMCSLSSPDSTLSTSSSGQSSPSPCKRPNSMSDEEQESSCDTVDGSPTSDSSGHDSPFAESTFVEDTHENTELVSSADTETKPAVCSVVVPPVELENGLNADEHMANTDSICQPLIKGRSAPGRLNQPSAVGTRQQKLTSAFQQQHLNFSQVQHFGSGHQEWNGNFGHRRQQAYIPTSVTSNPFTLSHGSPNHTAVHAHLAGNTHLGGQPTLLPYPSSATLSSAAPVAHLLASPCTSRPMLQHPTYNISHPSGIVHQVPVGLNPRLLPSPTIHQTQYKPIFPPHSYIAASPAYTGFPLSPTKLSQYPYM

## CN(C)C/C=C/C(=O)Nc1ccc(C(=O)N2CCCC(Nc3ncc(Cl)c(-c4c[nH]c5ccccc45)n3)C2)cc1 (stereo unspecified)
[1]
  % of control: 62%

## CN(C)CCOc1ccc(-c2nc(-c3ccncc3)c(-c3ccc4c(c3)CC/C4=N\O)[nH]2)cc1
[2]
  % of control: 87%

## CNC(=O)Nc1ccc(-c2nc(N3CC4CCC(C3)O4)c3cnn(C4CCC5(CC4)OCCO5)c3n2)cc1
[3]
  % of control: 88%

## COCC(=O)NC/C=C/c1ccc2ncnc(Nc3ccc(Oc4ccc(C)nc4)c(C)c3)c2c1 [CP-724714]
[4]
  IC50: > 10 µM

## COc1cc(N(C)c2ccnc3ccc(C(F)(F)F)cc23)cc(OC)c1OC
[5]
  % binding: 43%

## O=C(NOC[C@H](O)CO)c1ccc(F)c(F)c1Nc1ccc(I)cc1F
[6]
  % of control: 49%
